Measured values as given in ChEMBL document CHEMBL5528053, “Discovery of Novel Isoquinoline Analogues as Dual Tubulin Polymerization/V-ATPase Inhibitors with Immunogenic Cell Death Induction” (J Med Chem, 2024).
Calls of active or inactive are those of the source. The rule behind the calls is not given here.

What was measured:
[1] = system: A549; experiment: Antiproliferative activity against human A549 cells assessed as inhibition of cell growth after 72 hrs by MTT assay; type: functional, cell-based; conditions: A549, 72 h
[2] = system: MDA-MB-231; experiment: Antiproliferative activity against human MDA-MB-231 cells assessed as inhibition of cell growth after 72 hrs by MTT assay; type: functional, cell-based; conditions: MDA-MB-231, 72 h
[3] = system: PC-3; experiment: Antiproliferative activity against human PC-3 cells assessed as inhibition of cell growth after 72 hrs by MTT assay; type: functional, cell-based; conditions: PC-3, 72 h
[4] = system: DU-145; experiment: Antiproliferative activity against human DU-145 cells assessed as inhibition of cell growth after 72 hrs by MTT assay; type: functional, cell-based; conditions: DU-145, 72 h
[5] = Anticancer activity against mouse RM1 cells assessed as increase in mean fluorescence intensity at 2 nM measured after 24 hrs by flow cytometry analysis (reference value: 7.40+/-3.96 ); type: functional
[6] = system: PC-3; experiment: Inhibition of autophagy in human PC-3 cells assessed as increase in number of autophagosomes at 50 uM measured after 3 hrs by immunofluorescence imaging based analysis; type: functional, cell-based
[7] = Antitumor immunity against mouse RM1 cells homografted in C57BL/6 mouse model assessed as increase in tumor infiltrating CD3+CD8+T cells (CTLs) at 5 mg/kg, iv administered every two days for 14 days by flow cytometry analysis (reference value: 0.89%); type: functional; conditions: time 14 day
[8] = Antitumor activity against mouse RM1 cells homografted in C57BL/6 mouse model assessed as tumor growth inhibition at 5 mg/kg, iv administered every two days for 14 days by vernier caliper based analysis relative to control; type: functional; conditions: RM1, 336 h, time 14 day, read-out: TGI
[9] = Antitumor immunity against mouse RM1 cells homografted in C57BL/6 mouse model assessed as increase in tumor infiltrating helper T lymphocytes at 5 mg/kg, iv administered every two days for 14 days by flow cytometry analysis (reference value: 6.59%); type: functional; conditions: time 14 day
[10] = Toxicity in ICR mouse assessed as bone marrow suppression by measuring RBC level at 5 mg/kg, ip measured for 14 days; type: organism-based, Erythrocyte; conditions: in vivo, 336 h, time 14 day
[11] = Toxicity in ICR mouse assessed as effect on ALT level at 5 mg/kg, ip measured for 14 days; type: organism-based; conditions: in vivo, 336 h, time 14 day
[12] = Toxicity in ICR mouse assessed as bone marrow suppression by measuring WBC level at 5 mg/kg, ip measured for 14 days; type: organism-based; conditions: in vivo, 336 h, time 14 day
[13] = Toxicity in ICR mouse assessed as bone marrow suppression by measuring hemoglobin count at 5 mg/kg, ip measured for 14 days; type: organism-based; conditions: in vivo, 336 h, time 14 day
[14] = system: RM1; experiment: Antitumor immunity against mouse RM1 cells homografted in C57BL/6 mouse model assessed as increase in activation of tumor infiltrating lymphocytes in spleen at 5 mg/kg, iv administered every two days for 14 days by flow cytometry analysis; type: functional, organism-based; conditions: time 14.0 day
[15] = system: RM1; experiment: Antitumor immunity against mouse RM1 cells homografted in C57BL/6 mouse model assessed as increase in tumor infiltrating helper T lymphocytes in spleen at 5 mg/kg, iv administered every two days for 14 days by flow cytometry analysis; type: functional, organism-based; conditions: time 14.0 day
[16] = Antitumor immunity against mouse RM1 cells homografted in C57BL/6 mouse model assessed as increase in tumor infiltrating lymphocytes at 5 mg/kg, iv administered every two days for 14 days by flow cytometry analysis (reference value: 5.26%); type: functional; conditions: time 14 day
[17] = Antitumor activity against mouse RM1 cells xenografted in immunocompetent […] mouse model assessed as tumor growth inhibition at 5 mg/kg, iv measured every two days for 14 days relative to control; type: functional; conditions: RM1, 336 h, time 14 day, read-out: TGI
[18] = Toxicity in ICR mouse assessed as decrease in lymphocytes at 5 mg/kg, ip measured for 14 days; type: organism-based; conditions: in vivo, 336 h, time 14 day
[19] = system: RM1; experiment: Antitumor immunity against mouse RM1 cells homografted in C57BL/6 mouse model assessed as increase in tumor infiltrating CD3+CD8+T cells (CTLs) in spleen at 5 mg/kg, iv administered every two days for 14 days by flow cytometry analysis; type: functional, organism-based; conditions: time 14.0 day

SMILES	IC50 [1]	IC50 [2]	IC50 [3]	IC50 [4]	further results
COc1cc(-c2nc(C(N)=O)cc3cc(OCCCN4CCOCC4)ccc23)cc(OC)c1OC	> 10 µM	> 10 µM	> 10 µM	> 10 µM	–
COc1cc(-c2nc(C(N)=O)cc3cc4c(cc23)OCCO4)cc(Cl)c1OC	0.16 µM	0.21 µM	0.2 µM	0.27 µM	–
CCOc1c(OC)cc(-c2nc(C(N)=O)cc3cc4c(cc23)OCCO4)cc1OC	> 10 µM	> 10 µM	> 10 µM	> 10 µM	–
COc1cc(-c2nc(C(N)=O)cc3cc4c(cc23)OCCO4)cc2c1OCCCO2	2.95 µM	> 10 µM	3.34 µM	8.35 µM	–
CCCOc1ccc2c(-c3cc(OC)c(OC)c(OC)c3)nc(C(N)=O)cc2c1	> 10 µM	> 10 µM	> 10 µM	> 10 µM	–
COc1cccc2c1C(=O)c1c(O)c3c(c(O)c1C2=O)C[C@@](O)(C(=O)CO)C[C@@H]3O[C@H]1C[C@H](N)[C@H](O)[C@H](C)O1 [DOXORUBICIN]	–	–	–	–	Flu intensity [5]: 184.3
COc1cc(-c2nc(C(N)=O)cc3cc4c(cc23)OCCO4)cc(OC)c1OC	0.84 µM	1.27 µM	1.18 µM	1.05 µM	–
COc1ccc2c(-c3cc(OC)c(OC)c(OC)c3)nc(C(N)=O)cc2c1	> 10 µM	> 10 µM	> 10 µM	> 10 µM	–
COc1cc(-c2nc(C(=O)NO)cc3cc4c(cc23)OCCO4)cc(OC)c1OC	1.75 µM	1.58 µM	1.48 µM	1.94 µM	–
CCOc1ccc2c(-c3cc(OC)c(OC)c(OC)c3)nc(C(N)=O)cc2c1	> 10 µM	> 10 µM	> 10 µM	> 10 µM	–
CCOc1cc(-c2nc(C(N)=O)cc3cc4c(cc23)OCCO4)cc(OC)c1OC	0.37 µM	0.48 µM	0.39 µM	0.54 µM	–
COc1cc(-c2nc(C(N)=O)cc3cc4c(cc23)OCCO4)cc(I)c1OC	0.18 µM	0.3 µM	0.17 µM	0.3 µM	–
COc1c(Br)cc(-c2nc(C(N)=O)cc3cc4c(cc23)OCCO4)cc1Br	0.2 µM	0.4 µM	0.27 µM	0.32 µM	–
COc1cc(-c2nc(C(N)=O)cc3cc4c(cc23)OCCO4)cc2c1OCO2	2.01 µM	1.31 µM	1.12 µM	0.75 µM	–
CCN(CC)CCCC(C)Nc1ccnc2cc(Cl)ccc12 (stereo unspecified)	–	–	–	–	inhibition [6]: Active
CC(=O)O[C@H]1C(=O)[C@@]2(C)[C@H]([C@H](OC(=O)c3ccccc3)[C@]3(O)C[C@H](OC(=O)[C@H](O)[C@@H](NC(=O)c4ccccc4)c4ccccc4)C(C)=C1C3(C)C)[C@]1(OC(C)=O)CO[C@@H]1C[C@@H]2O [PACLITAXEL]	–	–	–	–	Activity [7]: 1.16%; inhibition in vivo at 5 mg/kg [8]: 54.6%; Activity [9]: 9.81%; Activity [10]: Toxic; Activity [11]: Toxic; Activity [12]: Toxic; Activity [13]: Toxic; Activity [14]: Active; Activity [15]: inactive; Activity [16]: 5.68%; inhibition in vivo at 5 mg/kg [17]: 55.5%; Activity [18]: Toxic; Activity [19]: inactive
COc1cc2c(O)c3c(c(-c4ccc5c(c4)OCO5)c2cc1OC)C(=O)OC3 [DIPHYLLIN]	0.89 µM	2.27 µM	0.21 µM	0.38 µM	–
COc1cc(-c2nc(C(=O)O)cc3cc4c(cc23)OCCO4)cc(OC)c1OC	> 10 µM	> 10 µM	> 10 µM	> 10 µM	–
COc1c(I)cc(-c2nc(C(N)=O)cc3cc4c(cc23)OCCO4)cc1I	2.15 µM	0.73 µM	1.98 µM	3.22 µM	–
COc1c(Cl)cc(-c2nc(C(N)=O)cc3cc4c(cc23)OCCO4)cc1Cl	0.25 µM	0.87 µM	0.64 µM	0.49 µM	–
COc1cc2c(c(OC)c1OC)-c1ccc(OC)c(=O)cc1[C@@H](NC(C)=O)CC2 [COLCHICINE]	–	0.12 µM	0.05 µM	0.07 µM	–
COc1cc(-c2nc(C(N)=O)cc3cc4c(cc23)OCCO4)cc2c1OCCO2	1.85 µM	0.75 µM	1.35 µM	1.56 µM	–
CCCOc1c(OC)cc(-c2nc(C(N)=O)cc3cc4c(cc23)OCCO4)cc1OC	1.39 µM	2.42 µM	1.99 µM	1.64 µM	–
CCCOc1cc(-c2nc(C(N)=O)cc3cc4c(cc23)OCCO4)cc(OC)c1OC	5.56 µM	> 10 µM	> 10 µM	> 10 µM	–
COc1cc(-c2nc(CO)cc3cc4c(cc23)OCCO4)cc(OC)c1OC	1.26 µM	1.35 µM	1.63 µM	1.46 µM	–
COC(=O)c1cc2cc3c(cc2c(-c2cc(OC)c(OC)c(OC)c2)n1)OCCO3	1.53 µM	3.21 µM	1.57 µM	2.1 µM	–
